Measured values from patent US9546156B2, “N-bicyclic aryl,N'-pyrazolyl urea, thiourea, guanidine cyanoguanidine compounds as TrkA kinase inhibitors” (Array BioPharma Inc., priority 2012, dated 2017).

How the values were obtained:
Assay in all cases: Off-target kinase profiling (KinaseProfiler)
Assay type in all cases: biochemical
Settings in all cases: 10 μM, ATP near Km
JNK3 = biological target: T1, JNK3 (Homo sapiens, UniProt P53779)
T1 construct: purchased Millipore, Inc. (KinaseProfiler service)
Outline: (§1)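 Each enzyme was challenged with 10 μM inhibitor in the presence of ATP at roughly its Km. Two replicates were run, and their average is reported relative to an uninhibited control.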

MINK = biological target: T2, MINK (Homo sapiens, UniProt Q8N4C8)
T2 construct: purchased Millipore, Inc. (KinaseProfiler service)
Outline: as §1

TEC Activated = biological target: T3, TEC Activated (Homo sapiens, UniProt P42680)
T3 construct: purchased Millipore, Inc. (KinaseProfiler service)
Outline: as §1

ROCK-I = biological target: T4, ROCK-I (Homo sapiens, UniProt Q13464)
T4 construct: purchased Millipore, Inc. (KinaseProfiler service)
Outline: as §1

DAPK3 = biological target: T5, DAPK3 (Homo sapiens, UniProt O43293)
T5 construct: purchased Millipore, Inc. (KinaseProfiler service)
Outline: as §1

Fes = biological target: T6, Fes (Homo sapiens, UniProt P07332)
T6 construct: purchased Millipore, Inc. (KinaseProfiler service)
Outline: as §1

DMPK = biological target: T7, DMPK (Homo sapiens, UniProt Q09013)
T7 construct: purchased Millipore, Inc. (KinaseProfiler service)
Outline: as §1

Lck = biological target: T8, Lck (Homo sapiens, UniProt P06239)
T8 construct: purchased Millipore, Inc. (KinaseProfiler service)
Outline: as §1

NLK = biological target: T9, NLK (Homo sapiens, UniProt Q9UBE8)
T9 construct: purchased Millipore, Inc. (KinaseProfiler service)
Outline: as §1

Yes = biological target: T10, Yes (Homo sapiens, UniProt P07947)
T10 construct: purchased Millipore, Inc. (KinaseProfiler service)
Outline: as §1

TBK1 = biological target: T11, TBK1 (Homo sapiens, UniProt Q9UHD2)
T11 construct: purchased Millipore, Inc. (KinaseProfiler service)
Outline: as §1

CAMK1d = biological target: T12, CAMK1d (Homo sapiens, UniProt Q8IU85)
T12 construct: purchased Millipore, Inc. (KinaseProfiler service)
Outline: as §1

CDK5/p35 = biological target: T13, CDK5/p35 (Homo sapiens, UniProt Q00535)
T13 construct: purchased Millipore, Inc. (KinaseProfiler service)
Outline: as §1

EGFR = biological target: T14, EGFR (Homo sapiens, UniProt P00533)
T14 construct: purchased Millipore, Inc. (KinaseProfiler service)
Outline: as §1

DAPK1 = biological target: T15, DAPK1 (Homo sapiens, UniProt P53355)
T15 construct: purchased Millipore, Inc. (KinaseProfiler service)
Outline: as §1

CK2alpha2 = biological target: T16, CK2alpha2 (Homo sapiens, UniProt P19784)
T16 construct: purchased Millipore, Inc. (KinaseProfiler service)
Outline: as §1

STK33 = biological target: T17, STK33 (Homo sapiens, UniProt Q9BYT3)
T17 construct: purchased Millipore, Inc. (KinaseProfiler service)
Outline: as §1

CK1delta = biological target: T18, CK1delta (Homo sapiens, UniProt P48730)
T18 construct: purchased Millipore, Inc. (KinaseProfiler service)
Outline: as §1

p38beta = biological target: T19, p38beta (Homo sapiens, UniProt Q15759)
T19 construct: purchased Millipore, Inc. (KinaseProfiler service)
Outline: as §1

KIT = biological target: T20, KIT (Homo sapiens, UniProt P10721)
T20 construct: purchased Millipore, Inc. (KinaseProfiler service)
Outline: as §1

MARK2 = biological target: T21, MARK2 (Homo sapiens, UniProt Q7KZI7)
T21 construct: purchased Millipore, Inc. (KinaseProfiler service)
Outline: as §1

Bmx = biological target: T22, Bmx (Homo sapiens, UniProt P51813)
T22 construct: purchased Millipore, Inc. (KinaseProfiler service)
Outline: as §1

FAK2 = biological target: T23, FAK2 (Homo sapiens, UniProt Q14289)
T23 construct: purchased Millipore, Inc. (KinaseProfiler service)
Outline: as §1

MST2 = biological target: T24, MST2 (Homo sapiens, UniProt Q13188)
T24 construct: purchased Millipore, Inc. (KinaseProfiler service)
Outline: as §1

SGK1 = biological target: T25, SGK1 (Homo sapiens, UniProt O00141, S422D)
T25 construct: purchased Millipore, Inc. (KinaseProfiler service)
Outline: as §1

IKKalpha = biological target: T26, IKKalpha (Homo sapiens, UniProt O15111)
T26 construct: purchased Millipore, Inc. (KinaseProfiler service)
Outline: as §1

HIPK3 = biological target: T27, HIPK3 (Homo sapiens, UniProt Q9H422)
T27 construct: purchased Millipore, Inc. (KinaseProfiler service)
Outline: as §1

TSSK1 = biological target: T28, TSSK1 (Homo sapiens, UniProt Q9BXA7)
T28 construct: purchased Millipore, Inc. (KinaseProfiler service)
Outline: as §1

CK1gamma1 = biological target: T29, CK1gamma1 (Homo sapiens, UniProt Q9HCP0)
T29 construct: purchased Millipore, Inc. (KinaseProfiler service)
Outline: as §1

PDGFRalpha = biological target: T30, PDGFRalpha (Homo sapiens, UniProt P16234)
T30 construct: purchased Millipore, Inc. (KinaseProfiler service)
Outline: as §1

ErbB4 = biological target: T31, ErbB4 (Homo sapiens, UniProt Q15303)
T31 construct: purchased Millipore, Inc. (KinaseProfiler service)
Outline: as §1

Ret = biological target: T32, Ret (Homo sapiens, UniProt P07949)
T32 construct: purchased Millipore, Inc. (KinaseProfiler service)
Outline: as §1

FGFR4 = biological target: T33, FGFR4 (Homo sapiens, UniProt P22455)
T33 construct: purchased Millipore, Inc. (KinaseProfiler service)
Outline: as §1

WNK2 = biological target: T34, WNK2 (Homo sapiens, UniProt Q9Y3S1)
T34 construct: purchased Millipore, Inc. (KinaseProfiler service)
Outline: as §1

DYRK2 = biological target: T35, DYRK2 (Homo sapiens, UniProt Q92630)
T35 construct: purchased Millipore, Inc. (KinaseProfiler service)
Outline: as §1

BTK = biological target: T36, BTK (Homo sapiens, UniProt Q06187)
T36 construct: purchased Millipore, Inc. (KinaseProfiler service)
Outline: as §1

MKK4_m = biological target: T37, MKK4_m (Mus musculus, UniProt P47809)
T37 construct: purchased Millipore, Inc. (KinaseProfiler service)
Outline: as §1

PASK = biological target: T38, PASK (Homo sapiens, UniProt Q96RG2)
T38 construct: purchased Millipore, Inc. (KinaseProfiler service)
Outline: as §1

JNK2alpha2 = biological target: T39, JNK2alpha2 (Homo sapiens, UniProt P45984)
T39 construct: purchased Millipore, Inc. (KinaseProfiler service)
Outline: as §1

GRK6 = biological target: T40, GRK6 (Homo sapiens, UniProt P43250)
T40 construct: purchased Millipore, Inc. (KinaseProfiler service)
Outline: as §1

MSSK1 = biological target: T41, MSSK1 (Homo sapiens, UniProt Q9UPE1)
T41 construct: purchased Millipore, Inc. (KinaseProfiler service)
Outline: as §1

T37 sequence (P47809 whole entry): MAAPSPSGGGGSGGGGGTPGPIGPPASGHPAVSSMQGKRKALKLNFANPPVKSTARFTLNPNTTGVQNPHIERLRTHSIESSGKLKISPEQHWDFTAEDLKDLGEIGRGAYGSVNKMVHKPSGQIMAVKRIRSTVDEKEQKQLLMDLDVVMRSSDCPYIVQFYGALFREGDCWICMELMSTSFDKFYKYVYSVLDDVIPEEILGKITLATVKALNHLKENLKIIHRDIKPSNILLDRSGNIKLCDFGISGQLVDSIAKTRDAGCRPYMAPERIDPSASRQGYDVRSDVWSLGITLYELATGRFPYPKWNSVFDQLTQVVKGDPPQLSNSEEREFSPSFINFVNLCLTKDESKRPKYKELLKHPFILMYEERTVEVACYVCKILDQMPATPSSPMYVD
T33 sequence (P22455 22-802): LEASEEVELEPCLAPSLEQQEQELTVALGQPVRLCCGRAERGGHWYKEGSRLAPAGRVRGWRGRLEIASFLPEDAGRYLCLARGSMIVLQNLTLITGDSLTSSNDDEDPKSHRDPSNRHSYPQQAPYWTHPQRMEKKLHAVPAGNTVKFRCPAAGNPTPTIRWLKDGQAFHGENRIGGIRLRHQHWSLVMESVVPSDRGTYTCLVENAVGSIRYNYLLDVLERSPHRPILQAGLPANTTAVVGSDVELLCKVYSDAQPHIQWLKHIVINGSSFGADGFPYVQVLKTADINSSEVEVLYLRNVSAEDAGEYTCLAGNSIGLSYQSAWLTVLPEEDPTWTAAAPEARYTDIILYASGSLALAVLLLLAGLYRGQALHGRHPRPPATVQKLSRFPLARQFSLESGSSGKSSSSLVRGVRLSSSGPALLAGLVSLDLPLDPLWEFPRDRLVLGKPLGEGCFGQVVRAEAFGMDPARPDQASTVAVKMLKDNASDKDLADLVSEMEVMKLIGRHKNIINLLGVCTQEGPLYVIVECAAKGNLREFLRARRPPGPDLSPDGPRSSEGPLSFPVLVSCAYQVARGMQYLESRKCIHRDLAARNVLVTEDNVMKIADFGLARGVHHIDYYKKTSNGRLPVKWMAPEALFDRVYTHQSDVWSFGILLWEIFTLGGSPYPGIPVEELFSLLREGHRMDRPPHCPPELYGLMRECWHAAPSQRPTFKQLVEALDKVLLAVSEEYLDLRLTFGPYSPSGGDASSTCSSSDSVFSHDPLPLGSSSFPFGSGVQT
T32 sequence (P07949 29-1114): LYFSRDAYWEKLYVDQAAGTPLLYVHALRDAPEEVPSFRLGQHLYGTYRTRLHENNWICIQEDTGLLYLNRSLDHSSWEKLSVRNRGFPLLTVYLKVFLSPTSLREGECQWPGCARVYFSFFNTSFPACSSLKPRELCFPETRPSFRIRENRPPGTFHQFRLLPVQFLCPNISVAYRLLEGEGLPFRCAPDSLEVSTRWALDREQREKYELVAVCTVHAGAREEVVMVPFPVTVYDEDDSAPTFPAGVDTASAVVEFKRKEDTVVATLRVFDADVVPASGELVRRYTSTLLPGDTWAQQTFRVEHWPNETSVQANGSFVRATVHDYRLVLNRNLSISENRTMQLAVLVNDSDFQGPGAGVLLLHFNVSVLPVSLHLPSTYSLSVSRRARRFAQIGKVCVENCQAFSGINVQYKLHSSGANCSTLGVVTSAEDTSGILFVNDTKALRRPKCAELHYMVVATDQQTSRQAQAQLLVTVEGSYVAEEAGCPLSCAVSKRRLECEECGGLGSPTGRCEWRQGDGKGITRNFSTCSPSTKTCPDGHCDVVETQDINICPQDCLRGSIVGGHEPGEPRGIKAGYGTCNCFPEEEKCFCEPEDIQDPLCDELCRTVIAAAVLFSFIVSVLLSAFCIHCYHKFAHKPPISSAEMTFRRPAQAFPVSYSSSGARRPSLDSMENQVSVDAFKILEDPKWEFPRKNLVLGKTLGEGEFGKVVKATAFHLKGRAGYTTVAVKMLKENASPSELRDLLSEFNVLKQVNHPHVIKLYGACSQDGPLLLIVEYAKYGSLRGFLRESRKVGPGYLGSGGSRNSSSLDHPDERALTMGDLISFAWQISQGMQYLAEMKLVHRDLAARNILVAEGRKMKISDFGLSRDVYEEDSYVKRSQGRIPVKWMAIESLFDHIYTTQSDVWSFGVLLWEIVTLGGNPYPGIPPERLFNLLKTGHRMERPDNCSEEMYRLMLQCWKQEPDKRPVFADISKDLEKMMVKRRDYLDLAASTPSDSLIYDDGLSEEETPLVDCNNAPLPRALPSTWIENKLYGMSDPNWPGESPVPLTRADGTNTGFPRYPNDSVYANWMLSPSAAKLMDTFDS
T41 sequence (Q9UPE1 whole entry): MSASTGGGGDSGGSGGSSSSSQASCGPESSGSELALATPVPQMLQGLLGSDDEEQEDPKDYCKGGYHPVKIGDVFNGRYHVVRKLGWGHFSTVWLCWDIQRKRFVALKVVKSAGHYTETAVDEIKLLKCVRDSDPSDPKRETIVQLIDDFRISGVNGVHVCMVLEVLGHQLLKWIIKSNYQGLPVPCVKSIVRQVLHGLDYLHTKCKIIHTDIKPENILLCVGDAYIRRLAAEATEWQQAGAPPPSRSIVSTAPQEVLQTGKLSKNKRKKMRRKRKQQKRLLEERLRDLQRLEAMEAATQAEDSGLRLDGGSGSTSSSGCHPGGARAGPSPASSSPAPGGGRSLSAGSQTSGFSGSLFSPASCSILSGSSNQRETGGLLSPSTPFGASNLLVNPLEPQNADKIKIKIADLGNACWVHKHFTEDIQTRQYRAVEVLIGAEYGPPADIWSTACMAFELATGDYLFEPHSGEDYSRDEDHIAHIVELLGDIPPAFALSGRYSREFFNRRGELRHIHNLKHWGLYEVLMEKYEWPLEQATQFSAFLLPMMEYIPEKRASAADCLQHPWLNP
T31 sequence (Q15303 26-1308): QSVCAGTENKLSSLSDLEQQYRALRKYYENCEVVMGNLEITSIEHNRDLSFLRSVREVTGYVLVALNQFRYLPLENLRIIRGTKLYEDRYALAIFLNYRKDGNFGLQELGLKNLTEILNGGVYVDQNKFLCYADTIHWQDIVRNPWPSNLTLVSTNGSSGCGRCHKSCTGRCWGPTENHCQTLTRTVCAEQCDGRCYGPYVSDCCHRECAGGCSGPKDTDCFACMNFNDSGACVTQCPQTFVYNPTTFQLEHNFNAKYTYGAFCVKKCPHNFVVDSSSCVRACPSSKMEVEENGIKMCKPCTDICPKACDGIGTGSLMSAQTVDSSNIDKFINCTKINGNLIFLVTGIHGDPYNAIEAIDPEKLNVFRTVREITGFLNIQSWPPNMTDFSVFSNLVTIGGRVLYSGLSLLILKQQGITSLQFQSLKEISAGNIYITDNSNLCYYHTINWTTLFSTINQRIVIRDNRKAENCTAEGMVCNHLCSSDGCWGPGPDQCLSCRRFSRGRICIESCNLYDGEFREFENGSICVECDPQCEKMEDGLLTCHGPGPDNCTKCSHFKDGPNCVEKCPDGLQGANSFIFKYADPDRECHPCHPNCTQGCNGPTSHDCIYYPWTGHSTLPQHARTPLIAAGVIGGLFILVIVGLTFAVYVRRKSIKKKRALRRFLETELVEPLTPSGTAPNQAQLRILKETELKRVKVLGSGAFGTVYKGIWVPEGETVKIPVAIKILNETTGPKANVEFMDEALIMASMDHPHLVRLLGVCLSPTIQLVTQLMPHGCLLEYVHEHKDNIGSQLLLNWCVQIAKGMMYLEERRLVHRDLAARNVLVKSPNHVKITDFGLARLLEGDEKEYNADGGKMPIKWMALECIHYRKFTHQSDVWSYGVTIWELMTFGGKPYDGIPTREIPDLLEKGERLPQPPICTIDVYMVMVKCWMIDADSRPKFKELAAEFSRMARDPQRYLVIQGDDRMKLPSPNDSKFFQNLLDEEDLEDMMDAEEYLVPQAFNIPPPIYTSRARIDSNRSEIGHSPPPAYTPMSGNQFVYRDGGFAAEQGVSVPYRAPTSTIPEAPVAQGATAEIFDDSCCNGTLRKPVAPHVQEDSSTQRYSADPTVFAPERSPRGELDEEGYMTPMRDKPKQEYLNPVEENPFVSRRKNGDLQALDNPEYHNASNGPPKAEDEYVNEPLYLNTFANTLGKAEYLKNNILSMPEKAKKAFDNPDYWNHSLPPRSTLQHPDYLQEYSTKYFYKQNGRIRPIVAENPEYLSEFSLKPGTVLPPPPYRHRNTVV
T39 sequence (P45984 whole entry): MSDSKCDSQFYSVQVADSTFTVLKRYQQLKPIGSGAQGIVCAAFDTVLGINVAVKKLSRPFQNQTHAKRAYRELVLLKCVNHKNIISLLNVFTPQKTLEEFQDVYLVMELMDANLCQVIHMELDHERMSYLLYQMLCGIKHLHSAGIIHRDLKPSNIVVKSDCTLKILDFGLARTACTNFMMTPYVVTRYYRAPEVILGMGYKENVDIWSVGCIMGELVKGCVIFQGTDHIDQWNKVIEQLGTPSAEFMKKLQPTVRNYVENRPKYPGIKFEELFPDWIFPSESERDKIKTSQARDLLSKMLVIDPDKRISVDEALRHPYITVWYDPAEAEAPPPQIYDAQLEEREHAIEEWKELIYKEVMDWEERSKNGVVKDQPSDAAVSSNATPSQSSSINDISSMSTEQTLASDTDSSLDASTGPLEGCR
T12 sequence (Q8IU85 whole entry): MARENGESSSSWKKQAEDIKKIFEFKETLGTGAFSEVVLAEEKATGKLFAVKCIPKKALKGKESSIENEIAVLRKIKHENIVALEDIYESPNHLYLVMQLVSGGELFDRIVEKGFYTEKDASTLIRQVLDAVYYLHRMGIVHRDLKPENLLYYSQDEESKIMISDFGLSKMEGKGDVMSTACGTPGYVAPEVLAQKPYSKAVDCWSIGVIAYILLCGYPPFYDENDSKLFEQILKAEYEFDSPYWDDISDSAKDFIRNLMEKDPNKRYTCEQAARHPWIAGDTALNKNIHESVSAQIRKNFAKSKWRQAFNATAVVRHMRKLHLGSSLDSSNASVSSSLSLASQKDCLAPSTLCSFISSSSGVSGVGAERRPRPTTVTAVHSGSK

Avg POC (JNK3): 132 POC
Avg POC (MINK): 118.5 POC
Avg POC (TEC Activated): 121.5 POC
Avg POC (ROCK-I): 118 POC
Avg POC (DAPK3): 120 POC
Avg POC (Fes): 117.5 POC
Avg POC (DMPK): 110.5 POC
Avg POC (Lck): 103 POC
Avg POC (NLK): 113.5 POC
Avg POC (Yes): 107.5 POC
Avg POC (TBK1): 121.5 POC
Avg POC (CAMK1d): 134.5 POC
Avg POC (CDK5/p35): 123.5 POC
Avg POC (EGFR): 106 POC
Avg POC (DAPK1): 118 POC
Avg POC (CK2alpha2): 101 POC
Avg POC (STK33): 106 POC
Avg POC (CK1delta): 127.5 POC
Avg POC (p38beta): 117 POC
Avg POC (KIT): 93.5 POC
Avg POC (MARK2): 114 POC
Avg POC (Bmx): 125 POC
Avg POC (FAK2): 117.5 POC
Avg POC (MST2): 115 POC
Avg POC (SGK1): 169.5 POC
Avg POC (IKKalpha): 138.5 POC
Avg POC (HIPK3): 109.5 POC
Avg POC (TSSK1): 104.5 POC
Avg POC (CK1gamma1): 115.5 POC
Avg POC (PDGFRalpha): 132 POC
Avg POC (ErbB4): 118 POC
Avg POC (Ret): 115 POC
Avg POC (FGFR4): 129 POC
Avg POC (WNK2): 122.5 POC
Avg POC (DYRK2): 99 POC
Avg POC (BTK): 121.5 POC
Avg POC (MKK4_m): 120.5 POC
Avg POC (PASK): 164.5 POC
Avg POC (JNK2alpha2): 126.5 POC
Avg POC (GRK6): 106 POC
Avg POC (MSSK1): 136.5 POC
SMILES: COCc1ccc2cccc(NC(=O)Nc3c(C)c(-c4cnn(C)c4)nn3-c3ccccc3)c2c1 [Example 16, 1-(1′,4-dimethyl-1-phenyl-1H,1′H-[3,4′-bipyrazol]-5-yl)-3-(7-(methoxymethyl)naphthalen-1-yl)urea]
